Laboratory results from PMC6429585, “Synthesis, Microtubule-Binding Affinity, and Antiproliferative Activity of New Epothilone Analogs and of an EGFR-Targeted Epothilone-Peptide Conjugate” (International Journal of Molecular Sciences, 2019).
Like-named read-outs stand apart in the source and are kept apart here.

Columns and labels:
A431 cells = test: cells; assay type: cell-based, human; settings: 72 h incubation, mean of three experiments ± SD; read-out: IC50 A431
Method: (§1) Experiments were performed in RPMI (SW480 cells) or DMEM (HEK293 and A431 cells) medium (Gibco) supplemented with 2 mM glutamine, 10% fetal bovine serum, 100 IU/mL penicillin, 100 µg/mL streptomycin, and 1 µg/mL amphotericin B (all from Sigma) at 37 °C and 5% CO2. Cells were seeded into 96-well microtiter plates and compounds were added in DMSO in serial dilutions in triplicate. The final DMSO (dimethylsulfoxide) concentration was 0.1%. After 72 h, a WST-1 reagent was added and the absorption was measured at 450 nm with a plate reader after 30 min to 4 h. The percentage of viable cells was calculated based on vehicle-treated cells and was plotted in GraphPadPrism. At least three independent experiments were performed.
(§2) A431 cells were obtained from CLS. The other cell lines were available in the laboratory. WST-1 was purchased from Roche.

SW480 cells = test: cells; assay type: cell-based, human; settings: 72 h incubation, mean of three experiments ± SD; read-out: IC50 SW480
Method: as §1, §2

HEK293 cells = test: cells; assay type: cell-based, human; settings: 72 h incubation, mean of three experiments ± SD; read-out: IC50 HEK293
Method: as §1, §2

[1] = Stability in complete cell culture medium (RP-HPLC); assay type: in vitro ADME; settings: bovine, complete cell culture medium (RPMI with 10% FBS); 8.6 μM solution in RPMI with 10% FBS, 3 days, 37 °C; read-out: degradation in cell culture medium
Method: The stability of the epothilone-GE11 conjugate 4 in complete cell culture medium was evaluated under conditions resembling those encountered in the cytotoxicity assays. Thus, an 8.6 μM solution of 4 in RPMI with 10% FBS was incubated for 3 days at 37 °C and subsequently analyzed by RP-HPLC. Only minor degradation of 4 (<10%) was observed under these conditions (data not shown).
Synthesis, Microtubule-Binding Affinity and Antiproliferative Activity of New Epothilone Analogs and of an EGFR-Targeted Epothilone-Peptide
Fabienne Zdenka Gaugaz, Andrea Chicca, Mariano Redondo, Isabel Barasoain, José Fernando Díaz, and Karl-Heinz Altmann*
SI.1. EGFR Expression Quantification
EGFR expression levels were determined by treating cells with 1 µg/ml Cetuximab or human IgG isotype antibody and staining with a secondary Alexa Fluor 647 goat anti-human IgG.[49] The fluorescence was quantified by FACS on a FACSCanto device with a FACSDiva software and later analyzed with FlowJo (Fig. S1). […]
Figure S1: Relative quantification of EGF receptors by FACS. […]
The stability of 4 in cell culture medium was evaluated by analytical RP-HPLC. […] The mixture was centrifuged and 10 µL of the supernatant were analyzed by analytical HPLC: H2O with 0.1% TFA (A) / acetonitrile/H2O 8/2 with 0.05% TFA (B). […]

[2] = Glutathione cleavage assay (reductive disulfide cleavage, RP-HPLC); assay type: physicochemical; settings: 10 mM GSH
Method: The reductive cleavage of conjugate 4 was analyzed under conditions mimicking those found in the endosome and the cytoplasm of cancer cells. Endosome-like conditions were assumed to be reproduced by a 10 mM solution of glutathione (GSH) in acetate and phosphate buffer pH 4.9; cytoplasm-like conditions entailed 10 mM GSH in phosphate buffer pH 7.4.
For cytoplasm-like conditions, 100 µL of a […] solution of conjugate 4 in degassed 100 mM phosphate buffer pH 7.4 were diluted with 400 µL of a degassed phosphate buffer and 500 µL of 20 mM glutathione in 100 mM phosphate buffer pH 7.4. Aliquots of 80 µL were removed at predefined time points, and the reaction was quenched with one volume of 10% metaphosphoric acid, giving a pH of 1 approximately. Fifty microliters of this solution were analyzed by analytical RP-HPLC. The same protocol was used for cleavage under endosome-like conditions, except that the glutathione solution was prepared in a 100 mM acetate buffer at pH 4.8, and the same buffer was also used to dilute the conjugate solution in a 100 mM phosphate buffer at pH 7.4. The final pH of the cleavage solution was 4.9.
Analytical RP-HPLC: H2O with 0.1% TFA (A)/acetonitrile/water 8/2 with 0.05% TFA (B). Linear gradient from 5% B to 80% B over 30 min. The percentage of remaining conjugate in the solutions was plotted against time (Figure 3). Analysis of the cleavage solutions by LC/MS provided information of the fractions of the various components in the redox mixture.
Figure 3 Kinetics of glutathione (GSH)-mediated reduction of epothilone-peptide conjugate 4 (173 µM 4, 10 mM GSH, pH 4.9 (endosome-like conditions), triangles, or pH 7.4 (cytoplasm-like conditions), circles). Conjugate 4 was added to the respective GSH solutions as a solution in phosphate buffer pH 7.4 at room temperature, to reach a total concentration of 173 μM. Samples were quenched at different time points with 10% metaphosphoric acid and analyzed by RP-HPLC. […]

human cancer cells = system: human cancer cells; set-up: method as in PMID 7757983, PMID 8999970; settings: cited from earlier work

## CC[C@H](C)[C@H](NC(=O)[C@@H](NC(=O)[C@H](CC(N)=O)NC(=O)[C@H](CCC(N)=O)NC(=O)[C@@H]1CCCN1C(=O)[C@@H](NC(=O)[C@H](Cc1ccc(O)cc1)NC(=O)CNC(=O)[C@H](Cc1ccc(O)cc1)NC(=O)[C@H](Cc1c[nH]c2ccccc12)NC(=O)[C@H](Cc1c[nH]cn1)NC(=O)[C@H](Cc1ccc(O)cc1)NC(=O)[C@@H](N)CSSCCn1c(C)nc2cc([C@@H]3C[C@@H]4C[C@H]4CCC[C@H](C)[C@H](O)[C@@H](C)C(=O)C(C)(C)CCC(=O)O3)ccc21)[C@@H](C)O)C(C)C)C(N)=O [compound 4]
A431 cells
  IC50: 74.7 ± 6.65 nM
SW480 cells
  IC50: 181 ± 25.9 nM
HEK293 cells
  IC50: 31.1 ± 6.21 nM
[1]
  metabolised at 72 h, 8.6 μM: < 10%
[2]; acetate and phosphate buffer pH 4.9, read-out: half-life, endosome-like conditions
  half-life at 173 µM: 66 s
[2]; phosphate buffer pH 7.4, 1 min
  residual conjugate 1 min after addition, cytoplasm-like conditions: no residual conjugate was detectable
[2]; phosphate buffer pH 7.4, read-out: estimated half-life, cytoplasm-like conditions
  half-life at 173 µM: ~12 s

## C/C(=C\c1csc(C)n1)[C@@H]1C[C@@H]2O[C@]2(C)CCC[C@H](C)[C@H](O)[C@@H](C)C(=O)C(C)(C)[C@@H](O)CC(=O)O1 [Epo B, Epothilone B]
Human cancer cells
  IC50 values for most cell lines: sub-nanomolar
